Values of other authors as cited in US20110313054A1, “BRANCHED COPOLYMERS, COMPOSITION AND USES” (Unilever PLC, priority 2009, published 2011).

Settings: in water at 20° C.

| SMILES | Solubility in water w/w at 20° C. |
| --- | --- |
| C=C(C)C(=O)OCC(C)O (centres unmarked) [2-Hydroxypropyl methacrylate] | 2.17 w/w |
| C=CC(=O)OCC(C)O (centres unmarked) [2-Hydroxypropyl acrylate] | Soluble |
| C=CC(=O)OCCO [2-Hydroxyethyl acrylate] | soluble |
| C=C(C)C(=O)O [Methacrylic acid] | Soluble |
| C=C(C)C(=O)OCCO [2-Hydroxyethyl methacrylate] | 3.00 w/w |
